Assay results: the supplement of paper PMC10627819

How the values were obtained:
[1] = tested on: S. pneumoniae D39V; assay: fitness (endpoint OD595 vs no drug) (fraction); higher = more growth
Procedure, shortened: (§1)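 Growth medium was TSB, LB Lennox or CY, and plates were kept at 37 °C. Inoculation was at OD595 0.01 in 384-well plates, at 30 µl per well or 55 µl for S. pneumoniae. OD595 was monitored every 30 min for 14 h and background-subtracted using the first reading. Fitness is the optical density on entering stationary phase divided by the robust mean of no-drug controls, with values capped at 1.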

[2] = tested on: B. subtilis 168; assay: as above
Procedure, shortened: as §1

[3] = tested on: S. aureus Newman; assay: Bliss interaction score (quartile over a dose matrix) (fitness difference); higher = more antagonism (negative = synergy)
Procedure, shortened: (§2)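 Fitness is OD595 at stationary-phase entry relative to the plate's robust no-drug mean, capped at 1. Single-drug fitness was inferred from combinations. The Bliss score is observed minus product-expected fitness, summarised by quartiles over technical, biological and donor/recipient replicates.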

[4] = tested on: S. aureus DSM 20231; assay: as above
Procedure, shortened: as §2

[5] = tested on: S. pneumoniae D39V; assay: as above
Procedure, shortened: as §2

[6] = tested on: B. subtilis 168; assay: as above
Procedure, shortened: as §2
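For Bliss interaction score (quartile over a dose matrix) in this document: first quartile when negative (synergy) and third quartile when positive (antagonism).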

C[C@H]1COc2c(N3CCN(C)CC3)c(F)cc3c(=O)c(C(=O)O)cn1c23 [Levofloxacin] + Cc1onc(-c2ccccc2)c1C(=O)N[C@@H]1C(=O)N2[C@@H]1SC(C)(C)[C@@H]2C(=O)O [Oxacillin]
Details | fitness
[1], first compound 0.1725 µg/mL, partner 0.01 µg/mL | 0.972
[1], first compound 0.1725 µg/mL, partner 0.02 µg/mL | 0.917
[1], first compound 0.2 µg/mL, partner 0.01 µg/mL | 0.928
[1], first compound 0.2 µg/mL, partner 0.02 µg/mL | 0.898
[1], first compound 0.2 µg/mL, partner 0.04 µg/mL | 0.495
[1], first compound 0.345 µg/mL, partner 0.01 µg/mL | 0.9
[1], first compound 0.345 µg/mL, partner 0.02 µg/mL | 0.894
[1], first compound 0.4 µg/mL, partner 0.01 µg/mL | 0.809
[1], first compound 0.4 µg/mL, partner 0.02 µg/mL | 0.785
[1], first compound 0.4 µg/mL, partner 0.04 µg/mL | 0.402
[1], first compound 0.69 µg/mL, partner 0.01 µg/mL | 0.704
[1], first compound 0.69 µg/mL, partner 0.02 µg/mL | 0.571
[1], first compound 0.8 µg/mL, partner 0.04 µg/mL | 0.24
[2], first compound 0.0312 µg/mL, partner 0.002 µg/mL | 0.0448
[2], first compound 0.0312 µg/mL, partner 0.004 µg/mL | 0.0387
[2], first compound 0.0312 µg/mL, partner 0.008 µg/mL | 0.0483
[2], first compound 0.0625 µg/mL, partner 0.002 µg/mL | 0.0429
[2], first compound 0.0625 µg/mL, partner 0.004 µg/mL | 0.0548
[2], first compound 0.0625 µg/mL, partner 0.008 µg/mL | 0.0559
[2], first compound 0.125 µg/mL, partner 0.002 µg/mL | 0.0397
[2], first compound 0.125 µg/mL, partner 0.004 µg/mL | 0.0414
[2], first compound 0.125 µg/mL, partner 0.008 µg/mL | 0.0574

fitness, [2], one replicate
Details | partner 0.0078 µg/mL | partner 0.0155 µg/mL | partner 0.031 µg/mL | partner 0.075 µg/mL | partner 0.15 µg/mL | partner 0.3 µg/mL
first compound 0.001 µg/mL | 0.942 | 0.965 | 0.932 | – | – | –
first compound 0.002 µg/mL | 0.898 | 0.936 | 0.876 | 0.476 | 0.0412 | 0.0517
first compound 0.0039 µg/mL | 0.832 | 0.849 | 0.741 | 0.416 | 0.038 | 0.0324
first compound 0.0078 µg/mL | – | – | – | 0.592 | 0.0582 | 0.0577

Details | Bliss interaction score
[3] | 0.0619
[4] | 0.0488
[5] | 0.11
[6] | -0.0169

C[C@H]1COc2c(N3CCN(C)CC3)c(F)cc3c(=O)c(C(=O)O)cn1c23 [Levofloxacin] + CC(=O)NC[C@H]1CN(c2ccc(N3CCOCC3)c(F)c2)C(=O)O1 [Linezolid]
Details | fitness
[1], first compound 0.1725 µg/mL, partner 0.2 µg/mL | 0.848
[1], first compound 0.1725 µg/mL, partner 0.4 µg/mL | 0.669
[1], first compound 0.1725 µg/mL, partner 0.8 µg/mL | 0.333
[1], first compound 0.2 µg/mL, partner 0.105 µg/mL | 0.81
[1], first compound 0.2 µg/mL, partner 0.21 µg/mL | 0.694
[1], first compound 0.2 µg/mL, partner 0.42 µg/mL | 0.568
[1], first compound 0.345 µg/mL, partner 0.2 µg/mL | 0.777
[1], first compound 0.345 µg/mL, partner 0.4 µg/mL | 0.591
[1], first compound 0.345 µg/mL, partner 0.8 µg/mL | 0.295
[1], first compound 0.4 µg/mL, partner 0.105 µg/mL | 0.72
[1], first compound 0.4 µg/mL, partner 0.21 µg/mL | 0.652
[1], first compound 0.4 µg/mL, partner 0.42 µg/mL | 0.506
[1], first compound 0.69 µg/mL, partner 0.2 µg/mL | 0.555
[1], first compound 0.69 µg/mL, partner 0.4 µg/mL | 0.323
[1], first compound 0.69 µg/mL, partner 0.8 µg/mL | 0.196
[1], first compound 0.8 µg/mL, partner 0.105 µg/mL | 0.449
[1], first compound 0.8 µg/mL, partner 0.21 µg/mL | 0.351
[1], first compound 0.8 µg/mL, partner 0.42 µg/mL | 0.284
[2], first compound 0.002 µg/mL, partner 0.125 µg/mL | 0.696
[2], first compound 0.0039 µg/mL, partner 0.125 µg/mL | 0.683
[2], first compound 0.0312 µg/mL, partner 0.125 µg/mL | 0.0311
[2], first compound 0.0312 µg/mL, partner 0.25 µg/mL | 0.0424
[2], first compound 0.0312 µg/mL, partner 0.5 µg/mL | 0.045
[2], first compound 0.0625 µg/mL, partner 0.125 µg/mL | 0.0397
[2], first compound 0.0625 µg/mL, partner 0.25 µg/mL | 0.0517
[2], first compound 0.0625 µg/mL, partner 0.5 µg/mL | 0.0516
[2], first compound 0.125 µg/mL, partner 0.125 µg/mL | 0.0523
[2], first compound 0.125 µg/mL, partner 0.25 µg/mL | 0.0524
[2], first compound 0.125 µg/mL, partner 0.5 µg/mL | 0.0424

fitness, [2], one replicate
Details | first compound 0.001 µg/mL | first compound 0.002 µg/mL | first compound 0.0039 µg/mL | first compound 0.0078 µg/mL
partner 0.0625 µg/mL | – | 0.886 | 0.846 | 0.862
partner 0.125 µg/mL | 0.82 | – | – | 0.615
partner 0.25 µg/mL | 0.66 | – | – | 0.0853
partner 0.5 µg/mL | 0.0709 | 0.0326 | 0.0626 | –

Details | Bliss interaction score
[3] | 0.0972
[4] | 0.0666
[5] | 0.0612
[6] | 0.0633

C[C@H]1COc2c(N3CCN(C)CC3)c(F)cc3c(=O)c(C(=O)O)cn1c23 [Levofloxacin] + COc1ccc(C[C@H](N)C(=O)N[C@H]2[C@@H](O)[C@H](n3cnc4c(N(C)C)ncnc43)O[C@@H]2CO)cc1 [Puromycin]
fitness
Details | first compound 0.0312 µg/mL | first compound 0.0625 µg/mL | first compound 0.125 µg/mL | first compound 0.1725 µg/mL | first compound 0.345 µg/mL | first compound 0.69 µg/mL
[1], partner 1 µg/mL | – | – | – | 0.981 | 0.919 | 0.689
[1], partner 2 µg/mL | – | – | – | 0.944 | 0.895 | 0.661
[1], partner 4 µg/mL | – | – | – | 0.796 | 0.8 | 0.599
[2], partner 0.39 µg/mL | 0.0269 | 0.0447 | 0.0177 | – | – | –
[2], partner 0.78 µg/mL | 0.0422 | 0.0467 | 0.0355 | – | – | –
[2], partner 1.56 µg/mL | 0.0415 | 0.0483 | 0.0409 | – | – | –

fitness, one replicate
Details | first compound 0.001 µg/mL | first compound 0.002 µg/mL | first compound 0.0039 µg/mL | first compound 0.2 µg/mL | first compound 0.4 µg/mL | first compound 0.8 µg/mL
[1], partner 1 µg/mL | – | – | – | 0.828 | 0.672 | 0.288
[1], partner 2 µg/mL | – | – | – | 0.854 | 0.741 | 0.309
[1], partner 4 µg/mL | – | – | – | 0.777 | 0.628 | 0.205
[2], partner 0.39 µg/mL | 0.961 | 0.909 | 0.834 | – | – | –
[2], partner 0.78 µg/mL | 0.949 | 0.967 | 0.884 | – | – | –
[2], partner 1.56 µg/mL | 0.934 | 0.909 | 0.868 | – | – | –

Details | Bliss interaction score
[3] | -0.0822
[4] | -0.0463
[5] | 0.0705
[6] | -0.0129

CN(C)C(=O)C(CCN1CCC(O)(c2ccc(Cl)cc2)CC1)(c1ccccc1)c1ccccc1 [Loperamide] + CN(N=O)C(=O)N[C@@H](C=O)[C@@H](O)[C@H](O)[C@H](O)CO [Streptozotocin]
fitness, [1]
Details | partner 1.2 µg/mL | partner 2.4 µg/mL | partner 4.8 µg/mL
first compound 17.14 µg/mL | 0.962 | 0.943 | 0.974
first compound 34.28 µg/mL | 0.956 | 0.982 | 0.978

fitness, one replicate
Details | first compound 20 µg/mL | first compound 25 µg/mL | first compound 40 µg/mL | first compound 50 µg/mL | first compound 68.57 µg/mL | first compound 80 µg/mL | first compound 100 µg/mL
[1], partner 1.2 µg/mL | ≥ 1 | – | ≥ 1 | – | 0.971 | 0.0146 | –
[1], partner 2.4 µg/mL | ≥ 1 | – | ≥ 1 | – | 0.929 | 0.0167 | –
[1], partner 4.8 µg/mL | ≥ 1 | – | ≥ 1 | – | ≥ 1 | 0 | –
[2], partner 0.15 µg/mL | – | 0.843 | – | 0.0229 | – | – | 0.0221
[2], partner 0.3 µg/mL | – | 0.802 | – | 0.0269 | – | – | 0.0127
[2], partner 0.6 µg/mL | – | 0.821 | – | 0.025 | – | – | 0.02

Details | Bliss interaction score
[3] | 0.0514
[4] | 0.103
[5] | 0.0707
[6] | -0.0219
